Experimental data published in patent US20260184675A1, “CHIRAL ISOMERIC SULFITE COMPOUND AND APPLICATION THEREOF” (Chengdu Hanova BioSciences Co., Ltd, priority 2024, published 2026).

Tests used:
Magnaporthe grisea = format: cell-based; conditions: 100 ppm; for Average antifungal rate (%) / Antifungal rate of Magnaporthe grisea (%), Replicate 1 / Antifungal rate of Magnaporthe grisea (%), Replicate 2 / Antifungal rate of Magnaporthe grisea (%), Replicate 3: 96-well plate; for Average antifungal rate (%): average of 3 replicates
eggs of Thrips = assay: Effect on hatching of eggs of Thrips, leaf disc method; format: in vivo; conditions: 100 ppm; for Hatching rate (%): 5 days after insecticide delivery
Description: (§1) • (1) Preparation of leaf discs containing eggs: 20 female adult mites of Tetranychus cinnabarinus were transferred onto leaf discs of Vicia faba with a diameter of 2.0 cm (with wetted filter paper at the bottom), then covered it with a lidded culture dish and cultivated under moisturizing conditions, the adult mites were removed within 36 hours and microscopic examination and counting were performed on leaf discs containing eggs. • (2) Investigation of egg population base: Before pesticide soaking, a microscopic examination was conducted on the egg basic number of each leaf disc, with 2 replicates set for each treatment. • (3) Pesticide soaking treatment: The leaf butterflies loaded with mite eggs were soaked in clear water and sulfite compounds for 10 seconds, respectively, then taken out and cultivated under moisturizing conditions. Each treatment should be repeated for no less than 3 times. • (4) Cultivation and observation: The […] were cultivated under normal conditions. Five days after insecticide delivery, the hatching status of mite eggs was investigated. • Note: The temperature and humidity conditions of the constant temperature and humidity incubator after the treatment should be controlled so as to avoid excessive temperature differences, which may cause generation and dripping of condensate water in the culture dish, resulting in abnormal death of eggs due to soaking in water; it is also necessary to ensure sufficient strong ambient light, without directing irradiating the leaves. • (5) Survey of Results: The experimental materials of each treatment group were regularly hydrated and moisturized, and the hatching of eggs was observed. On the 7th day after insecticide delivery, the number of hatched eggs for each treatment was recorded, and the survey of results was recorded in the original notebook. According to the experimental requirements and characteristics of agents, the survey time can be shortened or extended.
(§2) • 1) Surveying and recording the number of hatched eggs for each treatment. • 2) Photographing and recording whether there was any pesticide damage to the leaf discs of Vicia faba. • 3) Recording the developmental status of experimental mite eggs, behavior status of nymph mites, including abnormal phenomena such as delayed or stopped development of mite eggs, difficulty in breaking hull for nymph mites, or painful struggles after hatching, etc. • (6) Calculation method: Based on the survey data, the prevention and control effect of each treatment was calculated according to the following formula, and the calculation results were kept to two decimal places.
This test adopted the method in Test Example 1 of technical section, mainly used leaf disc method to explore the inhibitory effect on hatching of eggs of Thrips by 1-(S,S), 1-(S,R), 1-(R,R), 1-(R,S), 1′-(S,S), 1′-(S,R), 1′-(R,R), 1′-(R,S), compound 1, compound 1′, S-10, R-10, S-10′, R-10′, compound 10, compound 10′, compound 19-(S,S), 19-(S,R), 19-(R,R), 19-(R,S), 19′-(S,S), 19′-(S,R), 19′-(R,R), 19′-(R,S), compound 19, and compound 19′. The concentration of all compounds was 100 ppm.

eggs of Panonychus citri = assay: Effect on hatching of eggs of Panonychus citri, leaf disc method; format: in vivo; conditions: 1 ppm; for Hatching rate (%), Replicate 1 / Hatching rate (%), Replicate 2 / Hatching rate (%), Replicate 3 / Number of hatched larvae 5 days after insecticide delivery, Replicate 1 / Number of hatched larvae 5 days after insecticide delivery, Replicate 2 / Number of hatched larvae 5 days after insecticide delivery, Replicate 3: Panonychus citri eggs; for Hatching rate (%), Replicate 1 / Hatching rate (%), Replicate 2 / Hatching rate (%), Replicate 3: 5 days after delivery; for Number of hatched larvae 5 days after insecticide delivery, Replicate 1 / Number of hatched larvae 5 days after insecticide delivery, Replicate 2 / Number of hatched larvae 5 days after insecticide delivery, Replicate 3: leaf disc
Description: as §1, §2
This test adopted the method in Test Example 1 of technical section, mainly used leaf disc method to explore the effect on hatching of eggs of Panonychus citri by compounds 1-(S,S), 1-(S,R), 1-(R,R), 1-(R,S), 1′-(S,S), 1′-(S,R), 1′-(R,R), 1′-(R,S), compound 1, compound 1′, S-10, R-10, S-10′, R-10′, compound 10, compound 10′, compound 19-(S,S), 19-(S,R), 19-(R,R), 19-(R,S), 19′-(S,S), 19′-(S,R), 19′-(R,R), 19′-(R,S), compound 19, and compound 19′. The concentration of all compounds was 1 ppm.

[1] = system: eggs of Tetranychus urticae; assay: Effect on hatching of eggs of Tetranychus urticae, leaf disc method; format: in vivo; conditions: 5 ppm; for Hatching rate (%): 5 days after insecticide delivery
Description: as §1, §2
This test adopted the method in Test Example 1 of technical section, mainly used leaf disc method to explore the inhibitory effect on hatching of eggs of Tetranychus urticae by compounds 1-(S,S), 1-(S,R), 1-(R,R), 1-(R,S), 1′-(S,S), 1′-(S,R), 1′-(R,R), 1′-(R,S), compound 1, compound 1′, S-10, R-10, S-10′, R-10′, compound 10, compound 10′, compound 19-(S,S), 19-(S,R), 19-(R,R), 19-(R,S), 19′-(S,S), 19′-(S,R), 19′-(R,R), 19′-(R,S), compound 19, and compound 19′. The concentration of all compounds was 5 ppm.

[2] = system: eggs of Spodoptera litura; assay: Effect on hatching of eggs of Spodoptera litura, egg piece soaking; format: in vivo; conditions: 500 ppm; for Hatching rate (%), Replicate 1 / Hatching rate (%), Replicate 2 / Hatching rate (%), Replicate 3 / Number of unhatched larvae 4 days after insecticide delivery, Replicate 1 / Number of unhatched larvae 4 days after insecticide delivery, Replicate 2 / Number of unhatched larvae 4 days after insecticide delivery, Replicate 3: Spodoptera litura eggs; for Hatching rate (%), Replicate 1 / Hatching rate (%), Replicate 2 / Hatching rate (%), Replicate 3: 4 days after delivery; for Number of unhatched larvae 4 days after insecticide delivery, Replicate 1 / Number of unhatched larvae 4 days after insecticide delivery, Replicate 2 / Number of unhatched larvae 4 days after insecticide delivery, Replicate 3: soaked 10 minutes
Description: • (1) Preparation of paper containing eggs: the egg mass was cut into small pieces, each containing about 60 eggs, soaked in a preformulated test agent for 10 minutes together with paper for egg raising (concentration of each compound of 500 ppm). After taken out, absorbent paper was used to absorb the excess solution adhered to the paper for egg raising and egg pieces. (2) Cultivation: Each egg piece was separately placed in a glass test tube (5.0 cm in height, 2.5 cm in diameter, the same below), which was sealed with plastic paper punctured with fine holes using insect needles and cultivated in an artificial climate chamber at a temperature of (24±1° C.), a relative humidity of (80±10) %, and a photoperiod of L:D=12:12. When the eggs developed until they were about to hatch, castor leaves with a diameter of about 3 cm were added for feeding the hatching larvae; • (3) Observation: the number of hatched and unhatched eggs per egg piece was checked and recorded, and the hatching rate of eggs was calculated according to the formula. Each treatment was repeated for 3 times. • (4) Survey of results: The experimental materials of each treatment group were regularly hydrated and moisturized, and the hatching of eggs was observed. On the 4th day after insecticide delivery, the number of hatched eggs for each treatment was recorded, and the survey of results was recorded in the original notebook. According to the experimental requirements and characteristics of agents, the survey time can be shortened or extended. • 1) Surveying and recording the number of hatched eggs for each treatment. • 2) Recording the developmental status of experimental eggs of Spodoptera litura, behavior status of nymphs, including abnormal phenomena such as delayed or stopped development of eggs of Spodoptera litura, etc. • (5) Calculation method: Based on the survey data, the prevention and control effect of each treatment was calculated according to the following formula, and the calculation results were kept to two decimal places. [formula] [formula]

[3] = Replicate 1, listed as 1-(R, R)
[4] = Replicate 2, listed as 1-(R, R)
[5] = Replicate 3, listed as 1-(R, R)
[6] = Replicate 1, listed as 1-(R, S)
[7] = Replicate 2, listed as 1-(R, S)
[8] = Replicate 3, listed as 1-(R, S)

## C[C@H](COS(=O)OCCF)Oc1ccc(Cl)cc1Cl (stereo partly drawn) [1-(R,R)]
Magnaporthe grisea
  inhibitory rate against Magnaporthe grisea (in words): strong inhibitory rate
  Average antifungal rate (%): 98.96%
  Antifungal rate of Magnaporthe grisea (%), Replicate 1: 99.41%
  Antifungal rate of Magnaporthe grisea (%), Replicate 2: 99.12%
  Antifungal rate of Magnaporthe grisea (%), Replicate 3: 98.34%
Eggs of Thrips
  inhibitory activity on the hatching of eggs of Thrips (in words): strong inhibitory activities
Eggs of Thrips; [3]
  Hatching rate (%): 0.00%
  Number of hatched larvae 5 days after insecticide delivery: 0
Eggs of Thrips; [4]
  Hatching rate (%): 0.00%
  Number of hatched larvae 5 days after insecticide delivery: 0
Eggs of Thrips; [5]
  Hatching rate (%): 0.00%
  Number of hatched larvae 5 days after insecticide delivery: 0
Eggs of Panonychus citri
  inhibitory effect on the hatching of eggs of Panonychus citri (in words): good inhibitory effects
Eggs of Panonychus citri; listed as 1-(R, R)
  Hatching rate (%), Replicate 1: 0.00%
  Hatching rate (%), Replicate 2: 0.00%
  Hatching rate (%), Replicate 3: 0.00%
  Number of hatched larvae 5 days after insecticide delivery, Replicate 1: 0
  Number of hatched larvae 5 days after insecticide delivery, Replicate 2: 0
  Number of hatched larvae 5 days after insecticide delivery, Replicate 3: 0
[1]
  inhibitory activity on the hatching of eggs of Tetranychus urticae (in words): strong inhibitory activities
[1]; [3]
  Hatching rate (%): 0.00%
  Number of hatched larvae 5 days after insecticide delivery: 0
[1]; [4]
  Hatching rate (%): 0.00%
  Number of hatched larvae 5 days after insecticide delivery: 0
[2]
  inhibitory activity on the hatching of eggs of Spodoptera litura (in words): good inhibitory activities
[2]; listed as 1-(R, R)
  Hatching rate (%), Replicate 1: 22.39%
  Hatching rate (%), Replicate 2: 21.05%
  Hatching rate (%), Replicate 3: 23.73%
  Number of unhatched larvae 4 days after insecticide delivery, Replicate 1: 47
  Number of unhatched larvae 4 days after insecticide delivery, Replicate 2: 45
  Number of unhatched larvae 4 days after insecticide delivery, Replicate 3: 45

## C[C@H](COS(=O)OCCF)Oc1ccc(Cl)cc1Cl (stereo partly drawn) [1-(R,S)]
Magnaporthe grisea
  inhibitory rate against Magnaporthe grisea (in words): strong inhibitory rate
  Average antifungal rate (%): 81.91%
  Antifungal rate of Magnaporthe grisea (%), Replicate 1: 75.86%
  Antifungal rate of Magnaporthe grisea (%), Replicate 2: 83.08%
  Antifungal rate of Magnaporthe grisea (%), Replicate 3: 86.80%
Eggs of Thrips; [6]
  Hatching rate (%): 9.57%
  Number of hatched larvae 5 days after insecticide delivery: 9
Eggs of Thrips; [7]
  Hatching rate (%): 9.02%
  Number of hatched larvae 5 days after insecticide delivery: 12
Eggs of Thrips; [8]
  Hatching rate (%): 7.95%
  Number of hatched larvae 5 days after insecticide delivery: 7
Eggs of Panonychus citri; listed as 1-(R, S)
  Hatching rate (%), Replicate 1: 7.14%
  Hatching rate (%), Replicate 2: 8.39%
  Hatching rate (%), Replicate 3: 8.14%
  Number of hatched larvae 5 days after insecticide delivery, Replicate 1: 7
  Number of hatched larvae 5 days after insecticide delivery, Replicate 2: 12
  Number of hatched larvae 5 days after insecticide delivery, Replicate 3: 7
[1]; [6]
  Hatching rate (%): 14.10%
  Number of hatched larvae 5 days after insecticide delivery: 11
[1]; [7]
  Hatching rate (%): 12.70%
  Number of hatched larvae 5 days after insecticide delivery: 88
[2]; listed as 1-(R, S)
  Hatching rate (%), Replicate 1: 64.18%
  Hatching rate (%), Replicate 2: 61.40%
  Hatching rate (%), Replicate 3: 60.34%
  Number of unhatched larvae 4 days after insecticide delivery, Replicate 1: 25
  Number of unhatched larvae 4 days after insecticide delivery, Replicate 2: 22
  Number of unhatched larvae 4 days after insecticide delivery, Replicate 3: 23
